Reference: PMC10648204, “Discovery of Novel Biphenyl Carboxylic Acid Derivatives as Potent URAT1 Inhibitors” (Molecules, 2023)

Legend:
URAT1 = conditions: general statement in the introduction; cited from earlier work
human URAT1 = target: T1, human URAT1 (Homo sapiens, UniProt Q96S37); experiment: In vitro URAT1 inhibitory assay (14C-uric acid uptake in HEK293T cells expressing human URAT1); type: cell-based; conditions: HEK293-URAT1 cells, 14C-labeled uric acid substrate; for inhibition at 10 µM: HEK-293T, 10 μM compound, mean of three measurements
T1 construct: expressed in transfected cells; host or cells: HEK293T cells (ATCC CRL-11268)
T1 sequence (Q96S37 1-553): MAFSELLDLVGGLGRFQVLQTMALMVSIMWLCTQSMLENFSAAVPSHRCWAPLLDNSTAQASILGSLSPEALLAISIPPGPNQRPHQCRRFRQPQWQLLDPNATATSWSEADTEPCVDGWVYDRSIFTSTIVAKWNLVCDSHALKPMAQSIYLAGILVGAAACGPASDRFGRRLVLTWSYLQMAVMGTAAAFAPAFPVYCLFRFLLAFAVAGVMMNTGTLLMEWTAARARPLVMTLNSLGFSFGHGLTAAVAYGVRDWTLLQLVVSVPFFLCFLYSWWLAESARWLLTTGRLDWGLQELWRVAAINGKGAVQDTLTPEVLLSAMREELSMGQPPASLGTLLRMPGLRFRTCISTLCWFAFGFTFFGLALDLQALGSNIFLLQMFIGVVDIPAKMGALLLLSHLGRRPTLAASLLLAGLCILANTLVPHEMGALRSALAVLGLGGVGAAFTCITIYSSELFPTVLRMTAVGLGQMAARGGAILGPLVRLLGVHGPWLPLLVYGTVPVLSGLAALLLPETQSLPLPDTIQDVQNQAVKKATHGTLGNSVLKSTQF
Protocol: All the target compounds were evaluated for their URAT1 inhibitory activities in HEK293-URAT1 cells using ^14C-labeled uric acid as the substrate. […] The SAR exploration on series A compounds mainly focused on the hydrophobic component. […] For series B compounds, the ortho-substituted biphenyl carboxylic acid was initially kept, and various aromatic components were incorporated (B1–B25). […] Different substituents were introduced onto the 4-pyridyl (B15–B21).
In Vitro URAT1 Inhibitory Assay. A transient expression system of human URAT1 in HEK293T cells was constructed to measure ^14C-uric acid transport. […] The cell cryovials were removed from liquid nitrogen storage, and immediately placed on dry ice prior to thawing. […] The cell suspension was transferred into a 15 mL centrifuge tube, and 10 mL complete medium (DMEM +10% FBS +500 μg/mL G418 +1% P/S) was added. After centrifugation at 1000 rpm for 5 min, the supernatant was discarded, and cell precipitation was resuspended in 5 mL complete medium and transferred to a T75 culture flask. […] The uptake assay test could be carried out after cell culture adherent to the well in the 96-well plate. Then, the cells were washed with 200 µL/well of pre-warmed Cl^- free HBSS buffer, and all buffer was removed at the last washing. 50 µL/well of Cl^- free HBSS Buffer containing Uric acid [8-^14C] (2.5 μCi/mL) and samples were added to the cells, and incubated for 8 min. Then, the cells were washed three times with Cl^- free HBSS Buffer and all buffer was removed at the last washing. 50 µL/well of lysis buffer (100 mM NaOH) was added to the lysate cells and stirred at 900 rpm for 5 min. 150 µL/well MicroScint™-40 cocktail was added and agitated at 900 rpm for 5 min. Finally, the 96-plate was counted in a MicroBeta2 (PerkinElmer). The data were analyzed and IC50 values was calculated with GraphPad Prism 6 software.

| IC50 (human URAT1) [nM] | inhibition at 10 µM (human URAT1) [%] | melting point [°C] | Compound | IC50 (URAT1 inhibitor potency level, in words) (URAT1) |
| --- | --- | --- | --- | --- |
| 1800 | 88 | 188 to 191 | O=C(O)c1ccccc1-c1ccccc1-c1nc(-c2ccncc2)no1 [Compound B14] |  |
|  | 42 | 169 to 171 | COc1ccc(-c2noc(-c3ccccc3-c3ccccc3C(=O)O)n2)c2ccccc12 [Compound B25] |  |
|  | < 10 | 165 to 167 | O=C(O)c1ccccc1-c1ccc(C(=O)N2CCCc3ccccc32)cc1 [Compound A20] |  |

Continued, molecule first:

| Compound | IC50 (human URAT1) [nM] | inhibition at 10 µM (human URAT1) [%] | melting point [°C] | IC50 (URAT1 inhibitor potency level, in words) (URAT1) |
| --- | --- | --- | --- | --- |
| CCc1oc2ccccc2c1C(=O)c1cc(Br)c(O)c(Br)c1 [Benz, benzbromarone] |  |  |  | submicromolar level |
| O=C(O)CSc1nnc(Br)n1-c1ccc(C2CC2)c2ccccc12 [Lesinurad] |  |  |  | micromolar level |
| Cc1cc(-c2noc(-c3ccccc3-c3ccccc3C(=O)O)n2)cc(C)n1 [Compound B20] | 3100 | 76 | 214 to 216 |  |
